Earlier results, collected in US20160107977A1, “METHODS OF SYNTHESIS OF INGENOL AND INTERMEDIATES THEREOF” (LEO LABORATORIES LIMITED, priority 2013, published 2016).

Tests used:
[1] = test system: Epstein-Barr virus; conditions: lymphoblastoid cells; Keller et al. 1982
[2] = test system: breast cancer cell line T47D; conditions: p53-mediated pathway, Vigone et al. 2005
[3] = test system: breast cancer cell line MDA-MB-231; conditions: p53-mediated pathway, Vigone et al. 2005

Row | SMILES | Epstein-Barr virus induction [1] | antitumour activity [2] | antitumour activity [3]
1 | CCCCCCCCCCCCCCCC(=O)O[C@H]1C(C)=C[C@]23C(=O)[C@@H](C=C(CO)[C@@H](O)[C@]12O)[C@H]1[C@@H](C[C@H]3C)C1(C)C | most potent Epstein-Barr virus inducer | – | –
2 | CC1=CC23C(=O)C(C=C(COC(=O)c4ccccc4)C(O)C2(O)C1O)C1C(CC3C)C1(C)C (stereo not drawn) [ingenol-20-benzoate] | – | antitumour activity characterized by inhibition of cell growth and apoptotic cell death | antitumour activity characterized by inhibition of cell growth and apoptotic cell death
